Tested on: Staphylococcus aureus (ATCC #27660)
Experiment: Rapid Germicidal Time Kill on treated gloves
Format: cell-based
Settings: for log reduction of organisms: nitrile gloves, versus applied organisms estimated from latex control
Procedure: We applied an inoculum of a known amount of microbes to the antimicrobial-treated surface of a glove. After about 3-6 minutes, we assessed the number of microbes that remained on the surface of the treated glove. […] Table 2 reports the relative efficacy of killing after contact with the coated glove. The concentration of organisms on the surface is given at an initial Zero Time point and at 3, 5, and 30 minute points. […] To test the antimicrobial efficacy of a polyhexamethylene biguanide, we treated nitrile examination gloves according to ASTM protocol 04-123409-106 “Rapid Germicidal Time Kill.” In brief, about 50 μL of an overnight culture of Staphylococcus aureus (ATCC #27660, 5×10^8 CFU/mL) was applied to the glove material. After a total contact time of about 6 minutes the glove fabric was placed into a neutralizing buffer. Surviving organisms were extracted and diluted in Letheen broth. Aliquots were spread plated on Tryptic Soy Agar plates. Plates were incubated for 48 hours at 35° C. Following incubation the surviving organisms were counted and the colony forming units (CFU) were recorded. The reduction (log10) in surviving organisms from test material versus control fabric was calculated: Log10 CFU/swatch Control−Log10 CFU/swatch Test Article=Log10 Reduction.

## Polyhexamethylene biguanide (PHMB)
Microtextured nitrile glove, machine applied at 0.03 g/glove
  log reduction of Staphylococcus aureus ATCC 27660: greater than four log reduction
Hand sprayed with no heat
  log reduction of organisms: greater than one log reduction
Machine sprayed under heated conditions
  log reduction of organisms: greater than 5 log

From patent publication US20070048358A1, “Antimicrobial substrates” (priority 2005, published 2007)
